Experimental data reported in US20220323400A1, “INHIBITORS OF SGLT AND USES THEREOF” (The Regents of the University of Michigan, priority 2019, published 2022).

Legend:
CF rabbits [1] = experiment: Intravenous glucose tolerance test (IVGTT) in CF rabbits treated with LX4211; assay type: in vivo, rabbit; details: FIG. 1
Protocol: (§1) ) has beneficial effects on treating CF, 5 CF rabbits were daily gavaged with LX4211 (15 mg/kg/day) for 4 weeks. The intravenous glucose tolerance test (IVGTT) and insulin tolerance test (ITT) were performed before treatment and at 4 weeks after treatment. Urine was collected daily to assess urinary glucose excretion. Blood was collected biweekly for the analysis of chemical panels including glucose, insulin, liver function, kidney function, lipid profiles and electrolytes. At the end of the experiment, the organ tissues of CF rabbits were collected for histology staining.

WT rabbits = experiment: Urine sugar levels in WT rabbits after Sota treatment; assay type: in vivo, rabbit; details: WT rabbits (n=2)
Protocol: Experiments were conducted that first examined the physiological responses of rabbits to Sota by measuring the urine sugar levels to assess urinary glucose excretion (FIG. 9). Sota was given to WT rabbits (n=2) daily for five days. […] This confirmed that rabbits respond to Sota similarly as rodents and human patients.

CF rabbits [2] = experiment: Blood chemical panels in CF rabbits treated with LX4211; assay type: in vivo, rabbit
Protocol: as §1
Abnormalities of serum ALP, CPK and Calcium were also detected in CF rabbits.

CF rabbits [3] = experiment: Lifespan (survival curve) of Sota-treated CF rabbits; assay type: in vivo, rabbit; details: treatment starting on Day 49 of age
Text: This is further supported by the elongated lifespan of Sota-treated CF rabbits. […] These findings indicate that contrary to the beliefs by many, the SGLT inhibitor drugs are indicative of bringing benefits with minimal risks to CF patients.

CF rabbits [4] = assay type: in vivo, rabbit
Protocol: as §1
Because most CF rabbits eventually die of gut obstruction for which abdominal hardening (which can be felt by palpation) has been used as a clinical sign, such softening may indicate beneficial effects on alleviating GI obstruction, although further studies are needed to confirm this predication.

CF rabbits [5] = experiment: Blood chemistry of CF rabbits treated with Sota for 10 weeks; assay type: in vivo, rabbit; details: 5 CF rabbits treated 10 weeks vs untreated control group, FIG. 11
Text: It is known that many CF patients show abnormalities in their blood chemistry tests. Blood chemistry in CF rabbits was also examind. In one study, blood was collected from 5 CF rabbits for the analysis of chemical panels including electrolytes, glucose and other metabolic parameters, and compared with those of WT rabbits (n=15). CF rabbits presented many abnormalities in metabolic parameters including lower serum potassium (WT 4.35±0.25 vs. CF 3.14±0.3, p<0.05), higher triglyceride (WT 75.8±69.5 vs. CF 447.0±76.6, p<0.05), cholesterol (WT 31.6±9.76 vs. CF 177.2±206.3, p<0.05) and glucose (WT 110.4±9.99 vs. CF 160.6±37.5, p<0.05). Abnormalities of serum ALP, CPK and Calcium were also detected in CF rabbits.
To evaluate if Sota has any effects on the blood chemistry parameters of CF rabbits, experiments were conducted wherein 5 CF rabbits were treated with Sota for 10 weeks.

[6] = rabbit, in vivo
CF rabbits [7] = experiment: Urinary glucose excretion in CF rabbits treated with LX4211; assay type: in vivo, rabbit; details: 15 mg/kg/day daily gavage
Protocol: as §1

CF rabbits [8] = experiment: Survival length of CF rabbits treated with LX4211; assay type: in vivo, rabbit; details: FIG. 3
CF rabbits [9] = experiment: IVGTT in CF rabbits prior to and after Sota treatment; assay type: in vivo, rabbit; details: CF rabbits (n=6), 15 mg/kg/day daily gavage 4 weeks, vs non-treatment, FIGS. 10B & C
Protocol: Experiments were conducted that next proceeded to treat CF rabbits (n=6) with Sota (15 mg/kg/day) by daily gavage for 4 weeks (FIG. 10A). The IVGTT test was performed prior to and 4 weeks after treatment.

In the case of Sotagliflozin [LX4211], the glucose tolerance (CF rabbits [1]; CF rabbits, 15 mg/kg/day, before vs 4 weeks after treatment) is reported as “restored glucose tolerance”, the “GTT response of one CF rabbit with signs of CF related diabetes (CFRD)” value (CF rabbits [1]; one CF rabbit, prior to vs after treatment) is reported as “restored to normal” and the “urine sugar level upon retrieval of the drug” value (WT rabbits; D7, FIG. 9) is reported as “immediately returned to normal”. The “urine sugar level during treatment” value (WT rabbits; daily for five days, D1-D5, FIG. 9) was “spike of urine sugar level was seen the second day (D1) and remained high during the treatment days”, the CPK (CF rabbits [2]; 15 mg/kg/day, FIG. 4) was “significant rescue effects” and the Calcium (CF rabbits [2]; 15 mg/kg/day, FIG. 4) was “significant rescue effects”. For the same substance, the cholesterol (CF rabbits [2]; 15 mg/kg/day, FIG. 4) was “significant rescue effects”, the triglyceride (CF rabbits [2]; 15 mg/kg/day, FIG. 4) was “significant rescue effects” and the “hyperglycemia (glucose)” value (CF rabbits [2]; 15 mg/kg/day, FIG. 4, FIG. 5) was “significantly attenuated”. The “hypokalemia (serum potassium)” value (CF rabbits [2]; 15 mg/kg/day, FIG. 4, FIG. 5) was “significantly attenuated”, the “ALB (Albumin)” value (CF rabbits [2]; FIG. 6) was “restored” and the “TPRO (Total Protein)” value (CF rabbits [2]; FIG. 6) was “restored”. The median lifespan (CF rabbits [3]; CF rabbits (n=10), FIG. 12 right panel) was over 150 days, the “number of treated CF rabbits that lived beyond 150 days” value (CF rabbits [3]; of n=10 CF rabbits) was 6 and the daily abdominal palpation (CF rabbits [4]; CF rabbits, 15 mg/kg/day daily gavage, abdominal hardening is a clinical sign of gut obstruction) was “softening of the abdominal”. For the same substance, the “adverse response to treatment” value (CF rabbits [4]; rabbit, in vivo, 15 mg/kg/day) was “no obvious adverse response”, the ALP (CF rabbits [5]) was “significantly improved” and the CPK (CF rabbits [5]) was “significantly improved”. The Chol (CF rabbits [5]) was “significantly improved”, the Glucose (CF rabbits [5]) was “significantly improved” and the “K+” value (CF rabbits [5]) was “significantly improved”. For the same substance, the Trig (CF rabbits [5]) was “significantly improved”, the weight gain [6] was “gained weight at a similar rate” and the urine glucose levels (CF rabbits [7]) was “spiked starting D1 after the treatment”. For the same substance, the survival length (CF rabbits [8]) was “improved survival length” and the “blood glucose elimination rate (IVGTT)” value (CF rabbits [9]) was “significantly higher”.
